From US11884750B2, “Cationic cell penetrating peptides and the use thereof” (CELLTROY CO., LTD., priority 2021, dated 2024)
“Also recorded” adds a separate entry of the source.

Key:
HaCAT cells = experiment: Cell penetration efficiency in human epidermal (skin) cells, 4 μM, flow cytometry; assay type: cell-based; conditions: 4 μM FITC-conjugated CPP, one hour
Method: The cell penetration efficiency of the cationic CPPs selected in Example 1 was evaluated using human epidermal cells. In further detail, HaCAT cells, which is a human epidermal cell line, were seeded in 24-well plates to have a cell density of 1×10^7 cells/well, and cultured in 10% FBS-added DMEM under conditions of 37° C. and 5% CO2 for 24 hours. Subsequently, the cells were treated 4 μM each of the FITC-conjugated CPP or FITC-conjugated TAT, and incubated for one hour. After the termination of the incubation, the cells were transferred to a sterile tube using 0.25% trypsin, and the medium was removed through centrifugation. Afterward, the cells were washed with 500 μL of D-PBS twice to completely remove the medium, and finally, resuspended in 400 μL of D-PBS and intracellular fluorescence was measured by flow cytometry (FACSCanto II).
To evaluate the cell penetration efficiency of the additionally selected cationic CPPs, an experiment was conducted using human epidermal cells or human neuroblastoma cells. In further detail, HaCAT cells, which is a human epidermal cell line, or SH-SYSY cells, which is a human neuroblastoma cell line, were seeded in 24-well plates to have a cell density of 1×10^7 cells/well and cultured in 10% FBS-added DMEM under conditions of 37° C. and 5% CO2 for 24 hours. In addition, the cells were treated with 4 μM each of FITC-conjugated peptides and FITC-conjugated TAT for one hour. After the completion of the culture, the cells were transferred to a sterile tube using 0.25% trypsin and centrifuged to remove the medium. Afterward, the cells were washed with 500 μL of D-PBS twice to completely remove the medium, and finally, resuspended in 400 μL of D-PBS and intracellular fluorescence was measured by flow cytometry (FACSCanto II).
(§1) Subsequently, to confirm whether the CPPs according to the present invention show excellent cell permeability into different types of cells/tissues, various tissue-derived cells were treated with biologically active molecule-conjugated CPPs to compare its delivery capacity with TAT. As in the previous examples, each cell was aliquoted in a plate at an appropriate density, and cultured in a 10% FBS-added medium under a condition of 37° C. and 5% CO2 for 24 hours. Subsequently, the cells were treated with 4 μM each of FITC-conjugated CPP or FITC-conjugated TAT and incubated for one hour. After the completion of the incubation, the cells were transferred to a sterile tube using 0.25% trypsin and centrifuged to remove the medium. Afterward, the cells were washed with 500 μL of D-PBS twice to completely remove the medium, and finally, resuspended in 400 μL of D-PBS and intracellular fluorescence was measured by flow cytometry (FACSCanto II).

monocytes = experiment: Cell penetration efficiency using monocytes; assay type: cell-based; conditions: 4 μM FITC-conjugated CPP, one hour
Method: as §1

HDF cell line = experiment: Cell penetration efficiency in skin cells (HDF); assay type: cell-based; conditions: 4 μM FITC-conjugated CPP, one hour
Method: as §1

macrophages = experiment: Cell penetration efficiency using macrophages; assay type: cell-based; conditions: macrophages differentiated from THP1 cells, 4 μM FITC-conjugated CPP, one hour
Method: as §1, with “II). Macrophages were used by inducing differentiation from THP1 cells. Specifically, the THP-1 cells were aliquoted on a cover glass laid on a 24-well plate to have a density of 6×10^4 cells/well, and after the addition of 100 ng/mL of phorbol 12-myristate 13-acetate (PMA), the cells were incubated for 48 hours to induce the differentiation into macrophages. After 48 hours, the cells were washed with Dulbecco's phosphate buffered saline (DPBS) to perform an experiment.” for “II).”

HeLa cell line = experiment: Cell penetration efficiency using cervical cancer cells; assay type: cell-based; conditions: 4 μM FITC-conjugated CPP, one hour
In short: (§2)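 Flow cytometry quantified cell-associated FITC signal following a 1 h incubation with FITC-tagged CPP or TAT at 4 μM.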

HEK293T cell line = experiment: Cell penetration efficiency using kidney cells; assay type: cell-based; conditions: 4 μM FITC-conjugated CPP, one hour
In short: as §2

A-427 cell line = experiment: Cell penetration efficiency using lung cells; assay type: cell-based; conditions: A-427 lung cells, 4 μM FITC-conjugated CPP, one hour
Method: as §1

SNU-46 cell line = experiment: Cell penetration efficiency using laryngeal cells; assay type: cell-based; conditions: SNU-46 laryngeal cells, 4 μM FITC-conjugated CPP, one hour
Method: as §1

HGB cell line = experiment: Cell penetration efficiency in glioblastoma cells; assay type: cell-based, human; conditions: 4 μM FITC-conjugated CPP, one hour
In short: as §2

HT1080 cell line = experiment: Cell penetration efficiency using connective tissue (fibrosarcoma) cells; assay type: cell-based; conditions: 4 μM FITC-conjugated CPP, one hour
In short: as §2

SH-SY5Y cells = experiment: Cell penetration efficiency in human neuroblastoma cells, 4 μM, flow cytometry; assay type: cell-based; conditions: one hour; for cell permeability compared with TAT: 4 μM FITC-conjugated CPP, flow cytometry; for Score / Score/TAT: 4 μM FITC-conjugated peptide; for Score: intracellular fluorescence by flow cytometry; for Score/TAT: ratio to FITC-conjugated TAT
In short: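 SH-SY5Y cells cultured 24 h in DMEM/10% FBS at 37 °C, 5% CO2, then exposed to 4 μM FITC-conjugated peptide (FITC-TAT as reference) for 1 h. After trypsinisation and D-PBS washes, intracellular fluorescence measured by flow cytometry.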

HepG2 cell line = experiment: Cell penetration efficiency using liver cells; assay type: cell-based; conditions: 4 μM FITC-conjugated CPP, one hour
Method: as §1

Sequence | cell permeability compared with TAT (HaCAT cells) | cell permeability compared with TAT (monocytes) | cell permeability compared with TAT (HDF cell line) | cell permeability compared with TAT (macrophages) | cell permeability compared with TAT (HeLa cell line) | cell permeability compared with TAT (HEK293T cell line) | cell permeability compared with TAT (A-427 cell line) | cell permeability compared with TAT (SNU-46 cell line) | cell permeability compared with TAT (HGB cell line) | cell permeability compared with TAT (HT1080 cell line) | cell permeability compared with TAT (SH-SY5Y cells) | Score (SH-SY5Y cells) | Score/TAT (SH-SY5Y cells) | cell permeability compared with TAT (HepG2 cell line) | cell permeability, fold of TAT (HGB cell line) [fold]
AARIRALRRRRRRP [C72] | higher cell permeability | higher cell permeability | higher cell permeability | higher cell permeability | higher cell permeability | higher cell permeability | higher cell permeability | higher cell permeability | higher cell permeability | higher cell permeability | higher cell permeability | 1026 | 1.977 | higher cell permeability | 
ARLRVILRRRHPRR [C95] | higher cell permeability | higher cell permeability | higher cell permeability | higher cell permeability |  | higher cell permeability | higher cell permeability | higher cell permeability | higher cell permeability | higher cell permeability | higher cell permeability | 2417 | 4.657 | higher cell permeability | ≥ 2
IPLRRLMRRARRHR [C112] | higher cell permeability | higher cell permeability | higher cell permeability | higher cell permeability | higher cell permeability |  |  | higher cell permeability | higher cell permeability |  | higher cell permeability | 946 | 1.823 | higher cell permeability | 
KPRKKKKKRKNKKI [C12] | increased cell permeability |  | higher cell permeability | higher cell permeability | higher cell permeability | higher cell permeability | higher cell permeability | higher cell permeability | higher cell permeability | higher cell permeability | higher cell permeability | 2062 | 3.973 | higher cell permeability | 
LVPRRLRRRARRRK [C179] | higher cell permeability | higher cell permeability | higher cell permeability | higher cell permeability | higher cell permeability | higher cell permeability | higher cell permeability | higher cell permeability | higher cell permeability | higher cell permeability | higher cell permeability | 2076 | 4.000 | higher cell permeability | 
RPRRKKQIKRLCKR [C16] | increased cell permeability; also recorded: higher cell permeability |  | higher cell permeability | higher cell permeability | higher cell permeability | higher cell permeability | higher cell permeability | higher cell permeability | higher cell permeability | higher cell permeability | higher cell permeability | 1680 | 3.237 | higher cell permeability | 
SRRRLRRFLRRIAP [C185] | higher cell permeability | higher cell permeability | higher cell permeability | higher cell permeability | higher cell permeability | higher cell permeability |  | higher cell permeability | higher cell permeability |  | higher cell permeability | 1684 | 3.245 | higher cell permeability | 
WPRRRLRLRHRARR [C113] | higher cell permeability | higher cell permeability | higher cell permeability | higher cell permeability | higher cell permeability | higher cell permeability | higher cell permeability | higher cell permeability | higher cell permeability | higher cell permeability | higher cell permeability | 1278 | 2.462 | higher cell permeability | 
